# Source: PubChem BioAssay (NCI)
#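 Tested at 5 concentrations; 48 h exposure; 96-well plates; endpoints linearly interpolated, else capped at highest concentration. Definition used: TGI = concentration required for complete inhibition of growth.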
# Tested on: HOP-62 NSCLC
# Assay: NCI tumour cell line growth inhibition, 48 h
row,SMILES,TGI [µM]
1,CC(=O)Nc1cc2c(s1)CCC1CC(=O)NN=C21 (stereo not drawn),> 100

# Tested on: XF 498 CNS
# Assay: NCI tumour cell line growth inhibition, 48 h
row,SMILES,TGI [µM]
1,CC(=O)C1=C(C)NC2C=CC=CN12 (stereo not drawn),> 100
2,Cc1cc(C)[n+](CCOc2ccc(/C(=C(/Cl)c3ccccc3)c3ccccc3)cc2)c(C)c1,1.29
3,CC(=O)Nc1cc2c(s1)CCC1CC(=O)NN=C21 (stereo not drawn),> 100
4,CC(C)C(=O)/C=C/c1ccc(Br)cc1,30.4

# Tested on: SF-295 CNS
# Assay: NCI tumour cell line growth inhibition, 48 h
row,SMILES,TGI [µM]
1,CC(=O)C1=C(C)NC2C=CC=CN12 (stereo not drawn),> 100
2,Cc1cc(C)[n+](CCOc2ccc(/C(=C(/Cl)c3ccccc3)c3ccccc3)cc2)c(C)c1,11.2
3,CC(=O)Nc1cc2c(s1)CCC1CC(=O)NN=C21 (stereo not drawn),> 100
4,CC(C)C(=O)/C=C/c1ccc(Br)cc1,29.9

# Tested on: HT29 colon
# Assay: NCI tumour cell line growth inhibition, 48 h
row,SMILES,TGI [µM]
1,CC(=O)C1=C(C)NC2C=CC=CN12 (stereo not drawn),> 100
2,Cc1cc(C)[n+](CCOc2ccc(/C(=C(/Cl)c3ccccc3)c3ccccc3)cc2)c(C)c1,3.48
3,CC(=O)Nc1cc2c(s1)CCC1CC(=O)NN=C21 (stereo not drawn),> 100
4,CC(C)C(=O)/C=C/c1ccc(Br)cc1,31.6

# Tested on: UACC-62 melanoma
# Assay: NCI tumour cell line growth inhibition, 48 h
row,SMILES,TGI [µM]
1,CC(=O)C1=C(C)NC2C=CC=CN12 (stereo not drawn),> 100
2,Cc1cc(C)[n+](CCOc2ccc(/C(=C(/Cl)c3ccccc3)c3ccccc3)cc2)c(C)c1,4.92
3,CC(=O)Nc1cc2c(s1)CCC1CC(=O)NN=C21 (stereo not drawn),> 100
4,CC(C)C(=O)/C=C/c1ccc(Br)cc1,28

# Tested on: EKVX NSCLC
# Assay: NCI tumour cell line growth inhibition, 48 h
row,SMILES,TGI [µM]
1,CC(=O)C1=C(C)NC2C=CC=CN12 (stereo not drawn),> 100
2,Cc1cc(C)[n+](CCOc2ccc(/C(=C(/Cl)c3ccccc3)c3ccccc3)cc2)c(C)c1,13.2
3,CC(=O)Nc1cc2c(s1)CCC1CC(=O)NN=C21 (stereo not drawn),> 100
4,CC(C)C(=O)/C=C/c1ccc(Br)cc1,50.9

# Tested on: HCC-2998 colon
# Assay: NCI tumour cell line growth inhibition, 48 h
row,SMILES,TGI [µM]
1,CC(=O)C1=C(C)NC2C=CC=CN12 (stereo not drawn),> 100
2,Cc1cc(C)[n+](CCOc2ccc(/C(=C(/Cl)c3ccccc3)c3ccccc3)cc2)c(C)c1,2.46
3,CC(C)C(=O)/C=C/c1ccc(Br)cc1,30.9

# Tested on: HCT-15 colon
# Assay: NCI tumour cell line growth inhibition, 48 h
row,SMILES,TGI [µM]
1,CC(=O)C1=C(C)NC2C=CC=CN12 (stereo not drawn),> 100
2,Cc1cc(C)[n+](CCOc2ccc(/C(=C(/Cl)c3ccccc3)c3ccccc3)cc2)c(C)c1,27.5
3,CC(=O)Nc1cc2c(s1)CCC1CC(=O)NN=C21 (stereo not drawn),> 100

# Tested on: TK-10 renal
# Assay: NCI tumour cell line growth inhibition, 48 h
row,SMILES,TGI [µM]
1,CC(=O)C1=C(C)NC2C=CC=CN12 (stereo not drawn),> 100
2,Cc1cc(C)[n+](CCOc2ccc(/C(=C(/Cl)c3ccccc3)c3ccccc3)cc2)c(C)c1,13.1
3,CC(=O)Nc1cc2c(s1)CCC1CC(=O)NN=C21 (stereo not drawn),> 100
4,CC(C)C(=O)/C=C/c1ccc(Br)cc1,32.3

# Tested on: SR leukemia
# Assay: NCI tumour cell line growth inhibition, 48 h
row,SMILES,TGI [µM]
1,CC(=O)C1=C(C)NC2C=CC=CN12 (stereo not drawn),> 100
2,Cc1cc(C)[n+](CCOc2ccc(/C(=C(/Cl)c3ccccc3)c3ccccc3)cc2)c(C)c1,4.32
3,CC(=O)Nc1cc2c(s1)CCC1CC(=O)NN=C21 (stereo not drawn),> 100
4,CC(C)C(=O)/C=C/c1ccc(Br)cc1,53.6

# Tested on: SF-268 CNS
# Assay: NCI tumour cell line growth inhibition, 48 h
row,SMILES,TGI [µM]
1,CC(=O)C1=C(C)NC2C=CC=CN12 (stereo not drawn),> 100
2,Cc1cc(C)[n+](CCOc2ccc(/C(=C(/Cl)c3ccccc3)c3ccccc3)cc2)c(C)c1,7.55
3,CC(=O)Nc1cc2c(s1)CCC1CC(=O)NN=C21 (stereo not drawn),> 100
4,CC(C)C(=O)/C=C/c1ccc(Br)cc1,48.4

# Tested on: ACHN renal
# Assay: NCI tumour cell line growth inhibition, 48 h
row,SMILES,TGI [µM]
1,CC(=O)C1=C(C)NC2C=CC=CN12 (stereo not drawn),> 100
2,Cc1cc(C)[n+](CCOc2ccc(/C(=C(/Cl)c3ccccc3)c3ccccc3)cc2)c(C)c1,31.4
3,CC(=O)Nc1cc2c(s1)CCC1CC(=O)NN=C21 (stereo not drawn),> 100
4,CC(C)C(=O)/C=C/c1ccc(Br)cc1,25.4

# Tested on: NCI-H460 lung
# Assay: NCI tumour cell line growth inhibition, 48 h
row,SMILES,TGI [µM]
1,CC(=O)C1=C(C)NC2C=CC=CN12 (stereo not drawn),> 100
2,Cc1cc(C)[n+](CCOc2ccc(/C(=C(/Cl)c3ccccc3)c3ccccc3)cc2)c(C)c1,8.18
3,CC(=O)Nc1cc2c(s1)CCC1CC(=O)NN=C21 (stereo not drawn),> 100
4,CC(C)C(=O)/C=C/c1ccc(Br)cc1,30.1

# Tested on: HL-60(TB) leukemia
# Assay: NCI tumour cell line growth inhibition, 48 h
row,SMILES,TGI [µM]
1,CC(=O)C1=C(C)NC2C=CC=CN12 (stereo not drawn),> 100
2,Cc1cc(C)[n+](CCOc2ccc(/C(=C(/Cl)c3ccccc3)c3ccccc3)cc2)c(C)c1,3.31
3,CC(=O)Nc1cc2c(s1)CCC1CC(=O)NN=C21 (stereo not drawn),> 100
4,CC(C)C(=O)/C=C/c1ccc(Br)cc1,41.2

# Tested on: UACC-257 melanoma
# Assay: NCI tumour cell line growth inhibition, 48 h
row,SMILES,TGI [µM]
1,CC(=O)C1=C(C)NC2C=CC=CN12 (stereo not drawn),> 100
2,Cc1cc(C)[n+](CCOc2ccc(/C(=C(/Cl)c3ccccc3)c3ccccc3)cc2)c(C)c1,3.28
3,CC(C)C(=O)/C=C/c1ccc(Br)cc1,30.8

# Tested on: HOP-18 NSCLC
# Assay: NCI tumour cell line growth inhibition, 48 h
row,SMILES,TGI [µM]
1,CC(=O)C1=C(C)NC2C=CC=CN12 (stereo not drawn),> 100

# Tested on: LOX IMVI melanoma
# Assay: NCI tumour cell line growth inhibition, 48 h
row,SMILES,TGI [µM]
1,CC(=O)C1=C(C)NC2C=CC=CN12 (stereo not drawn),> 100
2,Cc1cc(C)[n+](CCOc2ccc(/C(=C(/Cl)c3ccccc3)c3ccccc3)cc2)c(C)c1,2.14
3,CC(=O)Nc1cc2c(s1)CCC1CC(=O)NN=C21 (stereo not drawn),> 100
4,CC(C)C(=O)/C=C/c1ccc(Br)cc1,32.1

# Tested on: HCT-116 colon
# Assay: NCI tumour cell line growth inhibition, 48 h
row,SMILES,TGI [µM]
1,CC(=O)C1=C(C)NC2C=CC=CN12 (stereo not drawn),> 100
2,Cc1cc(C)[n+](CCOc2ccc(/C(=C(/Cl)c3ccccc3)c3ccccc3)cc2)c(C)c1,7.98
3,CC(=O)Nc1cc2c(s1)CCC1CC(=O)NN=C21 (stereo not drawn),> 100
4,CC(C)C(=O)/C=C/c1ccc(Br)cc1,17.4

# Tested on: SF-539 CNS
# Assay: NCI tumour cell line growth inhibition, 48 h
row,SMILES,TGI [µM]
1,CC(=O)C1=C(C)NC2C=CC=CN12 (stereo not drawn),> 100
2,Cc1cc(C)[n+](CCOc2ccc(/C(=C(/Cl)c3ccccc3)c3ccccc3)cc2)c(C)c1,9.82
3,CC(=O)Nc1cc2c(s1)CCC1CC(=O)NN=C21 (stereo not drawn),> 100
4,CC(C)C(=O)/C=C/c1ccc(Br)cc1,35.5

# Tested on: RXF 393 renal
# Assay: NCI tumour cell line growth inhibition, 48 h
row,SMILES,TGI [µM]
1,CC(=O)C1=C(C)NC2C=CC=CN12 (stereo not drawn),> 100
2,Cc1cc(C)[n+](CCOc2ccc(/C(=C(/Cl)c3ccccc3)c3ccccc3)cc2)c(C)c1,7.77
3,CC(=O)Nc1cc2c(s1)CCC1CC(=O)NN=C21 (stereo not drawn),> 100
4,CC(C)C(=O)/C=C/c1ccc(Br)cc1,36

# Tested on: NCI-H226 lung
# Assay: NCI tumour cell line growth inhibition, 48 h
row,SMILES,TGI [µM]
1,CC(=O)C1=C(C)NC2C=CC=CN12 (stereo not drawn),> 100
2,Cc1cc(C)[n+](CCOc2ccc(/C(=C(/Cl)c3ccccc3)c3ccccc3)cc2)c(C)c1,6.37
3,CC(=O)Nc1cc2c(s1)CCC1CC(=O)NN=C21 (stereo not drawn),> 100

# Tested on: SNB-75 CNS
# Assay: NCI tumour cell line growth inhibition, 48 h
row,SMILES,TGI [µM]
1,CC(=O)C1=C(C)NC2C=CC=CN12 (stereo not drawn),> 100
2,Cc1cc(C)[n+](CCOc2ccc(/C(=C(/Cl)c3ccccc3)c3ccccc3)cc2)c(C)c1,4.3
3,CC(=O)Nc1cc2c(s1)CCC1CC(=O)NN=C21 (stereo not drawn),> 100
4,CC(C)C(=O)/C=C/c1ccc(Br)cc1,32.8

# Tested on: SW-620 colon
# Assay: NCI tumour cell line growth inhibition, 48 h
row,SMILES,TGI [µM]
1,CC(=O)C1=C(C)NC2C=CC=CN12 (stereo not drawn),> 100
2,Cc1cc(C)[n+](CCOc2ccc(/C(=C(/Cl)c3ccccc3)c3ccccc3)cc2)c(C)c1,11.1
3,CC(=O)Nc1cc2c(s1)CCC1CC(=O)NN=C21 (stereo not drawn),> 100
4,CC(C)C(=O)/C=C/c1ccc(Br)cc1,23.1

# Tested on: KM12 colon
# Assay: NCI tumour cell line growth inhibition, 48 h
row,SMILES,TGI [µM]
1,CC(=O)C1=C(C)NC2C=CC=CN12 (stereo not drawn),> 100
2,Cc1cc(C)[n+](CCOc2ccc(/C(=C(/Cl)c3ccccc3)c3ccccc3)cc2)c(C)c1,2.01
3,CC(=O)Nc1cc2c(s1)CCC1CC(=O)NN=C21 (stereo not drawn),> 100
4,CC(C)C(=O)/C=C/c1ccc(Br)cc1,27.5

# Tested on: COLO 205 colon
# Assay: NCI tumour cell line growth inhibition, 48 h
row,SMILES,TGI [µM]
1,CC(=O)C1=C(C)NC2C=CC=CN12 (stereo not drawn),> 100
2,Cc1cc(C)[n+](CCOc2ccc(/C(=C(/Cl)c3ccccc3)c3ccccc3)cc2)c(C)c1,0.961
3,CC(=O)Nc1cc2c(s1)CCC1CC(=O)NN=C21 (stereo not drawn),> 100
4,CC(C)C(=O)/C=C/c1ccc(Br)cc1,56.1

# Tested on: SN12C renal
# Assay: NCI tumour cell line growth inhibition, 48 h
row,SMILES,TGI [µM]
1,CC(=O)C1=C(C)NC2C=CC=CN12 (stereo not drawn),> 100
2,Cc1cc(C)[n+](CCOc2ccc(/C(=C(/Cl)c3ccccc3)c3ccccc3)cc2)c(C)c1,6.03
3,CC(=O)Nc1cc2c(s1)CCC1CC(=O)NN=C21 (stereo not drawn),> 100
4,CC(C)C(=O)/C=C/c1ccc(Br)cc1,28.5

# Tested on: OVCAR-8 ovarian
# Assay: NCI tumour cell line growth inhibition, 48 h
row,SMILES,TGI [µM]
1,CC(=O)C1=C(C)NC2C=CC=CN12 (stereo not drawn),> 100
2,Cc1cc(C)[n+](CCOc2ccc(/C(=C(/Cl)c3ccccc3)c3ccccc3)cc2)c(C)c1,8.41
3,CC(=O)Nc1cc2c(s1)CCC1CC(=O)NN=C21 (stereo not drawn),> 100
4,CC(C)C(=O)/C=C/c1ccc(Br)cc1,62.9

# Tested on: K-562 leukemia
# Assay: NCI tumour cell line growth inhibition, 48 h
row,SMILES,TGI [µM]
1,CC(=O)C1=C(C)NC2C=CC=CN12 (stereo not drawn),> 100
2,Cc1cc(C)[n+](CCOc2ccc(/C(=C(/Cl)c3ccccc3)c3ccccc3)cc2)c(C)c1,8.11
3,CC(=O)Nc1cc2c(s1)CCC1CC(=O)NN=C21 (stereo not drawn),> 100
4,CC(C)C(=O)/C=C/c1ccc(Br)cc1,> 100

# Tested on: CAKI-1 renal
# Assay: NCI tumour cell line growth inhibition, 48 h
row,SMILES,TGI [µM]
1,CC(=O)C1=C(C)NC2C=CC=CN12 (stereo not drawn),> 100
2,Cc1cc(C)[n+](CCOc2ccc(/C(=C(/Cl)c3ccccc3)c3ccccc3)cc2)c(C)c1,20.3

# Tested on: SK-MEL-28 melanoma
# Assay: NCI tumour cell line growth inhibition, 48 h
row,SMILES,TGI [µM]
1,CC(=O)C1=C(C)NC2C=CC=CN12 (stereo not drawn),> 100
2,Cc1cc(C)[n+](CCOc2ccc(/C(=C(/Cl)c3ccccc3)c3ccccc3)cc2)c(C)c1,3.58
3,CC(=O)Nc1cc2c(s1)CCC1CC(=O)NN=C21 (stereo not drawn),> 100
4,CC(C)C(=O)/C=C/c1ccc(Br)cc1,41
